Experimental findings from patent US10875872B2, “Heteroaryl amide compounds as sting activators” (Incyte Corporation, priority 2018, dated 2020) are described below.

Structures are written as SMILES.

In the experiment the test system is IRF3. In words: IRF3 activation assay in THP-1 Dual cells (QUANTI-Blue reporter). In kind it is cell-based. As to conditions: Homo sapiens, THP1-Dual, 24 hours incubation, culture supernatant, absorbance at 620-655 nm. The method, then:
THP-1 Dual Cells (Invivogen) were maintained in RPMI1640 medium with addition of 10% FBS, 100 μg/mL zeocin, 10 μg/mL blasticidin. Cells were added in a 96-well flat bottom assay plate at 100,000 per well in 100 μL complete RPMI medium. Test compounds were prepared by serial dilution in complete RPMI medium and 100 μL test compounds were transferred to each corresponding well. The assay plate was incubated at 37° C., 5% CO2 for 24 hours. After the overnight incubation, 20 μL of the culture supernatants were collected, followed by addition of 180 μL of QUANTI-Blue (Invivogen) to assess IRF3 activity. The amount of IRF3 activation was assessed by reading the absorbance at 620-655 nm with a microplate reader 2 hours later. The culture supernatant from the untreated THP-1 cells was used as the negative control. To determine the NF-κB activation, another 20 μL of culture supernatant were transferred to a 96-well white plate, followed by addition of 50 μL of Quanti-Lucim assay solution (Invivogen). The amount of NF-κB activation induced by the test compounds were determined by the luminescence above the untreated control. EC50 determination was performed by fitting the curve of percent control activity versus the log of the compound concentration using the GraphPad Prism 6.0 software.
With `CCn1nc(C)cc1C(=O)Nc1nc2cc(C(N)=O)cc(C)c2n1C/C=C/Cn1c(NC(=O)c2cc(C)nn2CC)nc2cc(C(N)=O)c3c(c21)OCCO3` [Example 1, (E)-1-(4-(5-carbamoyl-2-(1-ethyl-3-methyl-1H-pyrazole-5-carboxamido)-7-methyl-1H-benzo[d]imidazol-1-yl)but-2-en-1-yl)-2-(1-ethyl-3-methyl-1H-pyrazole-5-carboxamido)-7,8-dihydro-1H-[1,4]dioxino[2′,3′:3,4]benzo[1,2-d]imidazole-5-carboxamide], the EC50 is 0.5 to 1 µM.
The figure for `CCn1nc(C)cc1C(=O)Nc1nc2cc(C(N)=O)cc(OCCCOC(=O)NCCC(=O)O)c2n1C/C=C/Cn1c(NC(=O)c2cc(C)nn2CC)nc2cc(C(N)=O)c3ccoc3c21` [Example 3, (E)-3-(((3-((5-carbamoyl-1-(4-(5-carbamoyl-2-(1-ethyl-3-methyl-1H-pyrazole-5-carboxamido)-1H-benzofuro[6,7-d]imidazol-1-yl)but-2-en-1-yl)-2-(1-ethyl-3-methyl-1H-pyrazole-5-carboxamido)-1H-benzo[d]imidazol-7-yl)oxy)propoxy)carbonyl)amino)propanoic acid] is less than 0.1 µM; for `CCn1nc(C)cc1C(=O)Nc1nc2cc(C(N)=O)cc(C)c2n1C/C=C/Cn1c(NC(=O)c2cc(C)nn2CC)nc2cc(C(N)=O)c3ccoc3c21` [Example 2, (E)-1-(4-(5-carbamoyl-2-(1-ethyl-3-methyl-1H-pyrazole-5-carboxamido)-7-methyl-1H-benzo[d]imidazol-1-yl)but-2-en-1-yl)-2-(1-ethyl-3-methyl-1H-pyrazole-5-carboxamido)-1H-benzofuro[6,7-d]imidazole-5-carboxamide] it is less than 0.1 µM.

What is called EC50 is the concentration giving half of the maximal effect. Read a low EC50 as a more potent agent.
